Experimental findings from DBAASP are described below.

Some test systems named below: Bacillus subtilis 168; Escherichia coli B; Staphylococcus aureus; Escherichia coli LEC001; Klebsiella pneumoniae M6; Streptococcus mutans.
Assay in all cases: ≥ marks a high value that may be exact or a test limit, other limits are often not marked, values filed in µg/mL are converted to µM
Experiment [1] relates to Bacillus licheniformis X39.
For experiment [2], the system named is Candida albicans ATCC 2002.
The test system of experiment [3] is Enterococcus faecalis 981.
Experiment [4] has as its system Enterococcus faecium 091299.
In experiment [5] the test system is Escherichia coli ATCC 25922.
Experiment [6] deals with Psychrobacter faecalis X29.
Experiment [7] has as its system Rhodococcus rhodochrous X15.
Experiment [8] concerns Staphylococcus aureus ATCC 25923.
The subject of experiment [9] is Staphylococcus carnosus KHS.
In experiment [10] the test system is Candida albicans F7-39/IDE99.
In experiment [11] the test system is Listeria monocytogenes KCTC 3710.
Experiment [12] has as its system Pseudomonas aeruginosa 3320.
The subject of experiment [13] is Pseudomonas aeruginosa ATCC 15692.
Experiment [14] has as its system Pseudomonas aeruginosa ATCC 27853.
Experiment [15] deals with Staphylococcus aureus 547582.
Experiment [16] relates to Staphylococcus aureus ATCC 29213.
In experiment [17] the test system is Acinetobacter baumannii ATCC 17978.
In experiment [18] the test system is Acinetobacter baumannii AYE.
In experiment [19] the test system is Candida albicans ATCC 90028.
Experiment [20] deals with Escherichia coli ATCC 25726.
The subject of experiment [21] is Escherichia coli NCTC 12923.
Experiment [22] concerns Klebsiella pneumoniae NCTC 13368.
The subject of experiment [23] is Pseudomonas aeruginosa NCTC 13437.
Experiment [24] concerns Pseudomonas aeruginosa PAO1.
In experiment [25] the test system is Staphylococcus aureus ATCC 9144.
Experiment [26] has as its system Staphylococcus aureus NCTC 13616.
The test system of experiment [27] is Staphylococcus aureus USA 300.
For experiment [28], the system named is Acinetobacter baumannii I NM8.
Experiment [29] concerns Candida albicans NCTC 3179.
For experiment [30], the system named is Enterococcus faecalis NCTC 12697.
In experiment [31] the test system is Fusobacterium nucleatum NCTC 10562.
Experiment [32] relates to Klebsiella pneumoniae ATCC 700603.
For experiment [33], the system named is Pseudomonas aeruginosa PAO239.
The subject of experiment [34] is Stenotrophomonas maltophilia.
For experiment [35], the system named is Streptococcus mutans ATCC 10449.
Experiment [36] relates to Lacticaseibacillus casei ATCC 4646.
The subject of experiment [37] is Streptococcus gordonii Challis DL1.
Experiment [38] deals with Streptococcus mitis ATCC 903.
The test system of experiment [39] is Streptococcus sanguinis NY101.
The subject of experiment [40] is Veillonella atypica PK1910.

The structures appear in SMILES notation. Converted amounts (≈) assume the structure as drawn. “And” between values parts separate entries of the source, which are not always exact repeats. Equal values may be shown once.

On to `CC[C@H](C)[C@H](NC(=O)[C@H](CC(C)C)NC(=O)[C@@H]1CCCN1C(=O)[C@H](CC(C)C)NC(=O)[C@@H](N)Cc1ccccc1)C(=O)N[C@@H](C)C(=O)N[C@@H](CO)C(=O)N[C@@H](CC(C)C)C(=O)N[C@@H](C)C(=O)N[C@@H](C)C(=O)N[C@@H](CC(N)=O)C(=O)N[C@@H](Cc1ccccc1)C(=O)N[C@H](C(=O)N1CCC[C@H]1C(=O)N[C@@H](CCCCN)C(=O)N[C@H](C(=O)N[C@@H](Cc1ccccc1)C(=O)N[C@H]1CSSC[C@@H](C(=O)O)NC(=O)[C@H](CCCCN)NC(=O)[C@H](CCCCN)NC(=O)[C@H]([C@@H](C)O)NC(=O)[C@H]([C@@H](C)CC)NC(=O)[C@H](CCCCN)NC1=O)[C@@H](C)CC)C(C)C` [FLPLIASLAANFVPKIFCKITKKC], for which the MIC in experiment [1] worked out at 2.4 µM (≈ 6.39 µg/mL); in [2], 2.4 µM (≈ 6.39 µg/mL); in [3], 19 µM (≈ 50.6 µg/mL); in experiment [4], 19 µM (≈ 50.6 µg/mL); in experiment [5], 150 µM (≈ 400 µg/mL); in experiment [6], 4.8 µM (≈ 12.8 µg/mL). For the same compound, the MIC in experiment [7] amounted to 1.2 µM (≈ 3.2 µg/mL); in experiment [8] it was 1.2 µM (≈ 3.2 µg/mL); in [9] it was 4.8 µM (≈ 12.8 µg/mL).

`CSCC[C@H](NC(=O)CNC(=O)[C@H](Cc1ccccc1)NC(=O)CN)C(=O)N[C@@H](C)C(=O)N[C@@H](CC(C)C)C(=O)N[C@@H](CCCCN)C(=O)N[C@@H](CC(C)C)C(=O)N[C@@H](CC(C)C)C(=O)N[C@@H](CCCCN)C(=O)N[C@@H](CCCCN)C(=O)N[C@H](C(=O)N[C@@H](CC(C)C)C(N)=O)C(C)C` [GFGMALKLLKKVL]: the MIC was determined as 1.3 µM (≈ 1.84 µg/mL) with Bacillus subtilis 168; 6.3 µM (≈ 8.93 µg/mL) in [10]; 6.25 µM (≈ 8.86 µg/mL) in [5]; 3 µM (≈ 4.25 µg/mL) with Escherichia coli B; 25 µM (≈ 35.4 µg/mL) in experiment [11]; 8 µM (≈ 11.3 µg/mL) in experiment [12]. Moreover, the MIC is 6.25 µM (≈ 8.86 µg/mL) in experiment [13]; 6.25 µM (≈ 8.86 µg/mL) in [14]; 8 µM (≈ 11.3 µg/mL) in [15]; 3.13 µM (≈ 4.43 µg/mL) in [8]; 3.13 µM (≈ 4.43 µg/mL) in experiment [16]; 3.7 µM and 4.43 µM in the experiment on Staphylococcus aureus.

Consider `CSCC[C@H](NC(=O)[C@H](CCSC)NC(=O)[C@H](CCCCN)NC(=O)CNC(=O)[C@@H](NC(=O)[C@@H](NC(=O)[C@H](CCCCN)NC(=O)[C@H](CC(C)C)NC(=O)CNC(=O)[C@H](Cc1ccccc1)NC(=O)[C@H](CCCCN)NC(=O)[C@H](Cc1ccccc1)NC(=O)[C@H](C)NC(=O)[C@H](CCCCN)NC(=O)CNC(=O)[C@H](CC(C)C)NC(=O)[C@H](CC(C)C)NC(=O)[C@H](CO)NC(=O)CNC(=O)[C@H](CC(C)C)NC(=O)CN)[C@@H](C)O)C(C)C)C(=O)NCC(=O)NCC(=O)N[C@@H](C)C(=O)N1CCC[C@H]1C(=O)N[C@@H](CCCN=C(N)N)C(=O)N[C@@H](CCC(=O)O)C(=O)N[C@@H](CCC(N)=O)C(=O)O` [GLGSLLGKAFKFGLKTVGKMMGGAPREQ], for which the MIC in experiment [17] was determined as 1.39 µM (≈ 4 µg/mL); in experiment [18], 1.39 µM (≈ 4 µg/mL); in experiment [19], 25 µM (≈ 72 µg/mL); in experiment [20], 3 µM (≈ 8.64 µg/mL); with Escherichia coli LEC001, 2.78 µM (≈ 8 µg/mL); in [21] it was 2.78 µM (≈ 8 µg/mL). For the same compound, the MIC is 5.56 µM (≈ 16 µg/mL) in the experiment on Klebsiella pneumoniae M6; 11.1 µM (≈ 32 µg/mL) in [22]; at least 44.5 µM in experiment [23]; over 44.5 µM in experiment [24]; 6 µM (≈ 17.3 µg/mL) in experiment [8]; 1.39 µM (≈ 4 µg/mL) in [25]. In addition, the MIC in [26] worked out at 1.39 µM (≈ 4 µg/mL); in [27], 2.78 µM (≈ 8 µg/mL).

`CC[C@H](C)[C@H](NC(=O)[C@H](CCCCN)NC(=O)[C@H](CC(C)C)NC(=O)[C@H](C)NC(=O)[C@H](CCCCN)NC(=O)CNC(=O)[C@H](CC(C)C)NC(=O)[C@@H](NC(=O)[C@H](CO)NC(=O)CNC(=O)[C@H](CC(C)C)NC(=O)CN)C(C)C)C(=O)NCC(=O)N[C@@H](C)C(=O)N[C@@H](CC(N)=O)C(=O)N[C@@H](CC(C)C)C(=O)N[C@@H](CC(C)C)C(N)=O` [GLGSVLGKALKIGANLL]: the MIC in experiment [28] is 6 µM (≈ 9.74 µg/mL); in experiment [29], at least 50 µM; in experiment [30] it was at least 100 µM; in experiment [5], 12.5 µM (≈ 20.3 µg/mL); in [31], 6.25 µM (≈ 10.1 µg/mL); in [32], 25 µM (≈ 40.6 µg/mL). The MIC turned out to be 25 µM (≈ 40.6 µg/mL) in [14]; 25 µM (≈ 40.6 µg/mL) in experiment [33]; 6 µM (≈ 9.74 µg/mL) in experiment [8]; 4 µM (≈ 6.49 µg/mL) in experiment [34]; 3.1 µM (≈ 5.03 µg/mL) in [35].

As for `CC(C)C[C@H](NC(=O)[C@H](CC(C)C)NC(=O)[C@H](Cc1cnc[nH]1)NC(=O)[C@H](Cc1cnc[nH]1)NC(=O)[C@H](CC(C)C)NC(=O)[C@H](CCCCN)NC(=O)[C@H](CCCCN)NC(=O)[C@H](CC(C)C)NC(=O)[C@H](CC(C)C)NC(=O)[C@H](CCCN=C(N)N)NC(=O)[C@H](CCCN=C(N)N)NC(=O)[C@H](Cc1c[nH]c2ccccc12)NC(=O)[C@@H](N)CCCN=C(N)N)C(=O)N[C@@H](Cc1cnc[nH]1)C(=O)NCC(=O)NCC(=O)NCC(=O)N[C@@H](Cc1ccccc1)C(=O)N[C@@H](CCCCN)C(=O)N[C@@H](CCCCN)C(=O)N[C@@H](Cc1ccccc1)C(=O)N[C@@H](Cc1c[nH]c2ccccc12)C(=O)N[C@@H](CCCCN)C(=O)N[C@@H](Cc1c[nH]c2ccccc12)C(=O)N[C@@H](Cc1ccccc1)C(=O)N[C@@H](CCCN=C(N)N)C(=O)N[C@@H](CCCN=C(N)N)C(=O)N[C@@H](Cc1ccccc1)C(N)=O` [RWRRLLKKLHHLLHGGGFKKFWKWFRRF], the minimal inhibitory concentration (MIC) in experiment [36] worked out at 2.14 µM (≈ 8 µg/mL); in [37] it was 4.28 µM (≈ 16 µg/mL); in experiment [38] it was 8.57 µM (≈ 32 µg/mL); in the experiment on Streptococcus mutans it was 1.51 µM (≈ 5.66 µg/mL); in experiment [39], 4.28 µM (≈ 16 µg/mL); in [40], 2.14 µM (≈ 8 µg/mL).
